pEC50: −log10 of the molar value.
How the values were obtained:
human PPAR alpha = biological target: T1, human PPAR alpha (Homo sapiens, UniProt Q07869); test: Transient transfection (transactivation) assay in CV-1 cells, hPPAR alpha; assay type: cell-based; conditions: PPAR transactivation activity; GAL4-PPAR LBD chimera in CV-1 cells; concentration achieving 50% of maximum activity; read-out: human αEC50
T1 construct: expressed in transfected cells; host or cells: CV-1 cells
T1 sequence (Q07869 239-466 limits assumed): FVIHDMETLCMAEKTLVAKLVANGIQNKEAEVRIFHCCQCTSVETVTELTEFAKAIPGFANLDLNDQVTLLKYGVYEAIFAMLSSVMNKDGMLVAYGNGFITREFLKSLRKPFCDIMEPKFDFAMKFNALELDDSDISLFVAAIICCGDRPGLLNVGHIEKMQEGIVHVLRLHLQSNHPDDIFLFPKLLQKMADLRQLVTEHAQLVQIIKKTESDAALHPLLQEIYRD
Excerpt: (§1) Most preferably, the compounds of formula (I) are selective hPPARalpha agonists. As used herein, a “selective hPPAR alpha agonist” is a hPPARalpha agonist whose EC50 for PPARalpha is at least 10 fold lower than its EC50 for PPAR gamma and PPAR delta. […] Most preferred compounds are greater than 100-fold selective hPPARalpha agonists (see Table 1).
(§2) Compounds were screened for functional potency in transient transfection assays in CV-1 cells for their ability to activate the PPAR subtypes (transactivation assay). A previously established chimeric receptor system was utilized to allow comparison of the relative transcriptional activity of the receptor subtypes on the same target gene and to prevent endogenous receptor activation from complicating the interpretation of results. See, for example, Lehmann, J. M.; Moore, L. B.; Smith-Oliver, T. A.; Wilkison, W. O.; Willson, T. M.; Kliewer, S. A., An antidiabetic thiazolidinedione is a high affinity ligand for peroxisome proliferator-activated receptor γ (PPARγ), J. Biol. Chem., 1995, 270, 12953–6. The ligand binding domains for murine and human PPAR alpha, PPAR gamma, and PPAR delta were each fused to the yeast transcription factor GAL4 DNA binding domain. […]

human PPAR gamma = biological target: T2, human PPAR gamma (Homo sapiens, UniProt P37231); test: Transient transfection (transactivation) assay in CV-1 cells, hPPAR gamma; assay type: cell-based; conditions: PPAR transactivation activity; GAL4-PPAR LBD chimera in CV-1 cells; concentration achieving 50% of maximum activity; read-out: human γEC50
T2 construct: expressed in transfected cells; host or cells: CV-1 cells
T2 sequence (P37231 238-503 limits assumed): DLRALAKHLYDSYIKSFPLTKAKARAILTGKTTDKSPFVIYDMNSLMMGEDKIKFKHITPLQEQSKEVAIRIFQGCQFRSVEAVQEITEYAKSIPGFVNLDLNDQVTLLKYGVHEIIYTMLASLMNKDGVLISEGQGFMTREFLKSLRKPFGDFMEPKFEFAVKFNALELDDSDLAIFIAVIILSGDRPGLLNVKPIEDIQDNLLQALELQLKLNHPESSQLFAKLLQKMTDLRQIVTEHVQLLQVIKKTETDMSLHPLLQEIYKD
Excerpt: as §1, §2

human PPAR delta = biological target: T3, human PPAR delta (Homo sapiens, UniProt Q03181); test: Transient transfection (transactivation) assay in CV-1 cells, hPPAR delta; assay type: cell-based; conditions: PPAR transactivation activity; GAL4-PPAR LBD chimera in CV-1 cells; concentration achieving 50% of maximum activity; read-out: human δEC50
T3 construct: expressed in transfected cells; host or cells: CV-1 cells
T3 sequence (Q03181 211-439 limits assumed): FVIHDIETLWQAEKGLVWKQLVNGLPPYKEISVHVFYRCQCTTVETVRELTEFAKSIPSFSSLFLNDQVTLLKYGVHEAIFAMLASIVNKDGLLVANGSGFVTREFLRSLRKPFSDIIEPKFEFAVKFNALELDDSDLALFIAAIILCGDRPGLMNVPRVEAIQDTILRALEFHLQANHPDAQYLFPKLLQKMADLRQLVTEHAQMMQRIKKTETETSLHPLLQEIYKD
Excerpt: as §1, §2

pEC50 (human PPAR alpha)	pEC50 (human PPAR gamma)	pEC50 (human PPAR delta)	melting point	SMILES
8.00	5.44	5.80	–	Cc1nc(-c2ccc(C(F)(F)F)cc2)sc1COc1cccc(CSCC(=O)O)c1 [Example 4, 2-{[(3-[4-methyl-2-(4-trifluoromethylphenyl)thiazol-5-yl]methoxy)benzyl]thio}acetic acid]
8.70	5.59	5.49	–	Cc1nc(-c2ccc(C(F)(F)F)cc2)sc1COc1cccc(COC(C)(C)C(=O)O)c1 [Example 2, 2-methyl-2-{(3-[4-methyl-2-(4-trifluoromethylphenyl)thiazol-5-yl]methoxy)benzyloxy}propionic acid]
–	–	–	136 °C	Cc1nc(-c2ccc(C(F)(F)F)cc2)sc1C(C)(C)Oc1cccc(COC(C)(C)C(=O)O)c1 [Example 10, 2-methyl-2-[3-{1-methyl-1-[4-methyl-2-(4-trifluoromethylphenyl)thiazol-5-yl]ethoxy}benzyloxy]propionic acid]
–	–	–	121 °C	Cc1nc(-c2ccc(C(F)(F)F)cc2)sc1COc1cccc(COCC(=O)O)c1 [Example 6, 2-{(3-[4-methyl-2-(4-trifluoromethylphenyl)thiazol-5-yl]methoxy)benzyloxy}acetic acid]

— patent publication US7091225B2, “Substituted oxazoles and thiazoles as hPPAR alpha agonists” (SmithKline Beecham Corporation, priority 2000, dated 2006)
